Experimental data taken from publication PMC9176665, “Legumain/pH dual-responsive lytic peptide–paclitaxel conjugate for synergistic cancer therapy” (Drug Delivery, 2022).
Converted amounts (≈) assume the structure as drawn.

Legend:
Type in all cases: cell-based
[1] = system: HCT116 tumor spheroid; test: Inhibition of tumor spheroid growth; settings: equivalent 0.05 µg/mL PTX, 9th day
Experimental: (§1) MCF-7 cells and HCT116 cells were dispersed in culture medium containing 10% methylcellulose (0.24%, w/v) at a density of around 1 × 10^5 cells/mL. Twenty microliters of the above medium was equably dropped on the lid of a […] cell culture dish and incubated at 37 °C for 24 h. When the tumor spheroids were formed, they were removed to 96-well plates which were pre-coated with agarose. After incubation for 72 h, MCF-7 tumor spheroid was treated with PPP and free PTX at equivalent 0.1 µg/mL PTX and HCT116 tumor spheroid was treated with PPP and free PTX at equivalent 0.05 µg/mL PTX. […] Measured with maximum diameter (dmax) and minimum diameter (dmin), the tumor spheroid volume was calculated by the following equation: V=[…], and the negative control tumor spheroids grew up in culture medium.

[2] = system: MCF-7 tumor spheroid; test: Inhibition of tumor spheroid growth; settings: MCF-7 spheroids, equivalent 0.1 µg/mL PTX, 9th day
Experimental: as §1

[3] = system: 4T1 cells; test: MTT cytotoxicity assay; settings: Mus musculus, 72 h, PTX concentration, n = 5
Experimental: (§2) MCF-7 cells, HCT116 cells, and 4T1 cells were seeded in 96-well plates at a density of 3 × 10^3/well. After 12 h, cancer cells were incubated with free PTX and PPP micelles with a PTX concentration from 0.001 µg/mL to 10 µg/mL in 200 µL culture mediums for 72 h. One hundred microliters of culture medium containing 10 µL MTT (5 mg/mL) was added to each well for another 4 h in the dark. The absorbance was measured at 570 nm by a microplate reader (Flexstation 3, Molecular Devices LLC, Sunnyvale, CA). Comparing treated wells with controlled wells, the cell viability was analyzed as mean ± SD (n = 5). In order to confirm the enzyme responsiveness of AAN between the mPEG and PTP-7, MTT assay was used to indirectly observe the cytotoxicity of PTP-7 cleaved by legumain. One microgram of recombinant mouse legumain (Abcam, Cambridge, UK) was activated in a buffer solution (pH 4.5) which contains 50 mM critic acid, 1 mM DTT, and 1 mM EDTA (Zhou et al., [2017]). Then, PP was dissolved in the legumain solution and incubated at 37 °C for 12 h. Next, culture medium containing 0.1–100 µg/mL of free PTP-7 or legumain treated mPEG-PTP-7 was added to cancer cells. After incubation for 24 h, the cell viability was calculated as above.
(§3) The cell lines were purchased from China Center for Type Culture Collection (Wuhan, China). MCF-7 and HCT116 cells were cultivated in DMEM and 1640 with 10% FBS and 1% PS. 4T1 cells were cultivated in 1640 containing 1% glutaMAX^TM-1, 1% MEM NEAA, 1% sodium pyruvate, 10% FBS and 1% PS. All cell lines were incubated in incubator at 37℃ and 5% CO2. All qualified mice were purchased from Hangzhou Medical College and fostered in laboratory animals and all animal experiments followed the ethical requirements set by the ethics committee of Zhejiang University of Technology (20210511034).

[4] = system: MCF-7 cells; test: MTT cytotoxicity assay; settings: Homo sapiens, MCF7, 72 h, PTX concentration, n = 5
Experimental: as §2, §3

[5] = system: HCT116 cells; test: MTT cytotoxicity assay; settings: Homo sapiens, HCT-116, 72 h, PTX concentration, n = 5
Experimental: as §2, §3

For CC(=O)O[C@H]1C(=O)[C@@]2(C)[C@H]([C@H](OC(=O)c3ccccc3)[C@]3(O)C[C@H](OC(=O)[C@H](O)[C@@H](NC(=O)c4ccccc4)c4ccccc4)C(C)=C1C3(C)C)[C@]1(OC(C)=O)CO[C@@H]1C[C@@H]2O [PTX, Paclitaxel], the “inhibition of spheroids (volume)” value [1] was 20.51%, the “inhibition of spheroids (volume)” value [2] was 47.88% and the IC50 [3] was 0.01 µg/mL (≈ 0.0117 µM). For the same compound, the IC50 [4] was 0.028 µg/mL (≈ 0.0328 µM) and the IC50 [5] was 0.006 µg/mL (≈ 0.00703 µM).
